According to ChEMBL document CHEMBL5634086, “Small molecule inhibitors of NLRP3 inflammasome and GSK-3β in the management of traumatic brain injury: A review” (Eur J Med Chem, 2023):

Key:
[1] = target: NACHT, LRR and PYD domains-containing protein 3 (Homo sapiens, UniProt Q96P20); assay: Inhibition of NLRP3 inflammasome in LPS-induced […] cells assessed as reduction in IL-1beta release preincubated for 1 hr followed by ATP addition and measured after 30 mins by ELISA; format: cell-based
[2] = Inhibition of LPS/ATP induced IL-1beta release in human THP-1 cells at 10 uM pretreated with LPS for 3 hrs followed by compound addition for 1 hr prior to ATP addition for another 1 hr by ELISA; format: functional; design: scale not given: the % may be the effect or the level left; settings: time 2 hrs
[3] = target: T1, Glycogen synthase kinase-3 beta (Homo sapiens, UniProt P49841); assay: Inhibition of GSK3beta (unknown origin) expressed in Sf9 cells incubated for 30 mins in presence of [gamma32P]ATP by scintillation counting method
T1 sequence (P49841 whole entry): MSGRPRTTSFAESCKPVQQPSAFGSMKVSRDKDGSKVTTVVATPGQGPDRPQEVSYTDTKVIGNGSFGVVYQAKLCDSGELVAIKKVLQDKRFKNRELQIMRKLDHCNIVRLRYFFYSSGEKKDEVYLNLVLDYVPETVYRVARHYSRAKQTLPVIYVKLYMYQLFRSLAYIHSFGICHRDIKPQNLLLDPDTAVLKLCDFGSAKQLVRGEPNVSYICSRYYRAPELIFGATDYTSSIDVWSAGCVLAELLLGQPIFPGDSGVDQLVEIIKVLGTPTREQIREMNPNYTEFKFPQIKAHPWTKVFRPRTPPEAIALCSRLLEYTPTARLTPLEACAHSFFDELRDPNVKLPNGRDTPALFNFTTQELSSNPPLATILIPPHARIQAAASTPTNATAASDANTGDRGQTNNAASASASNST

[4] = target: T1, Glycogen synthase kinase-3 beta; assay: Inhibition of GST-tagged GSK3beta (unknown origin)

Chain of NACHT, LRR and PYD domains-containing protein 3 (Q96P20 whole entry, the tested form may be a part): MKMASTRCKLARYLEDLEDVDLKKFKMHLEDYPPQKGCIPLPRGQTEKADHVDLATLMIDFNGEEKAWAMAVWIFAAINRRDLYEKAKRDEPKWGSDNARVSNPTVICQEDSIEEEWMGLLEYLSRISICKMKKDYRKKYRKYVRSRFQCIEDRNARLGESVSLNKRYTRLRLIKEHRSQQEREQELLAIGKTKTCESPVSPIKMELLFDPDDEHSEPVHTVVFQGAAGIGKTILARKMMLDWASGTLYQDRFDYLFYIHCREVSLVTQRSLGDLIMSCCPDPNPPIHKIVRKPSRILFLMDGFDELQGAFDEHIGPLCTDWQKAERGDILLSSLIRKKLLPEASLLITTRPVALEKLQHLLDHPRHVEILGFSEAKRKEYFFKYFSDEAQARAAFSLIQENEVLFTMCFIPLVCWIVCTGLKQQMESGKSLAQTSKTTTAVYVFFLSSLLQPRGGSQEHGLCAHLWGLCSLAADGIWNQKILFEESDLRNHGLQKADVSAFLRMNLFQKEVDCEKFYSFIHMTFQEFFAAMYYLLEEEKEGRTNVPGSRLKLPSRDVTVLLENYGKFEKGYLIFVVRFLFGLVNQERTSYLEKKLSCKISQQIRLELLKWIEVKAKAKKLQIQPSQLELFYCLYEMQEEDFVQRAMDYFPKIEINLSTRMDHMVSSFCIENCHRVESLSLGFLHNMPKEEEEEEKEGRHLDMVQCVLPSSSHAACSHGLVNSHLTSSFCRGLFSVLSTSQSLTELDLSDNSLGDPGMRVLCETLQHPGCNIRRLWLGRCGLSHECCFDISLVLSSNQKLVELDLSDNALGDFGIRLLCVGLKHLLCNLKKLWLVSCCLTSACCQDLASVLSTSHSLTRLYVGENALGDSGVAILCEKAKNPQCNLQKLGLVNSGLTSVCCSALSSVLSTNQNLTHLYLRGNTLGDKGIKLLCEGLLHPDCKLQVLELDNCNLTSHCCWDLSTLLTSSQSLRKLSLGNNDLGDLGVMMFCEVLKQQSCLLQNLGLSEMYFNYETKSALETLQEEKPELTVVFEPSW

## O=c1[nH]c(-c2ccc([N+](=O)[O-])cc2)nc2ccccc12
[1]
  IC50: 5000 nM

## c1cc2[nH]c(-c3cscn3)nc2cn1
[2]
  Activity: 30%

## O=C1Cc2c([nH]c3ccc([N+](=O)[O-])cc23)-c2ncccc2N1
[3]
  IC50: 4 nM
[4]
  IC50: 4 nM
